Test results: the supplement of paper PMC11061612

Columns and labels:
Test in all cases: Bliss excess, mean over the matrix (fraction); higher = more synergy
[1] = test system: OPM-2 (Plasma Cell Myeloma)
In short: (§1)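 After 24 hours at 37°C and 5% CO2 in 1536-well plates, cells in DMEM/F12 or RPMI plus 10% FBS received two-drug dose matrices for 72 hours. Viability came from CellTiter-Glo 2.0 luminescence and was scaled as inhibition, anchored at 0 by vehicle wells and at 1 by blank wells. Combination Emax is taken as the second-highest inhibition in the matrix, and Bliss excess as the observed combination effect less EA + EB − EA·EB, with EA and EB the single-agent effects.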

[2] = test system: PC-3_[JPC-3] (Lung Adenocarcinoma)
In short: as §1

[3] = test system: COLO-680N (Esophageal Squamous Cell Carcinoma)
In short: as §1

[4] = test system: L-1236 (Hodgkin's Lymphoma)
In short: as §1

[5] = test system: SHP-77 (Small Cell Lung Carcinoma)
In short: as §1

[6] = test system: VAL (B-Cell Non-Hodgkin's Lymphoma)
In short: as §1

[7] = test system: TE-8 (Esophageal Squamous Cell Carcinoma)
In short: as §1

[8] = test system: OVMIU (Ovarian Carcinoma)
In short: as §1

Structure (SMILES) | Bliss excess [1] | Bliss excess [2] | Bliss excess [3] | Bliss excess [4] | Bliss excess [5] | Bliss excess [6] | Bliss excess [7] | Bliss excess [8]
C=CCn1c(=O)c2cnc(Nc3ccc(N4CCN(C)CC4)cc3)nc2n1-c1cccc(C(C)(C)O)n1 [AZD1775] + CCc1c2c(nc3ccc(O)cc13)-c1cc3c(c(=O)n1C2)COC(=O)[C@]3(O)CC [SN-38] (first compound max 1 µM, partner max 0.3 µM) | 0.0117 | -0.0575 | -0.0066 | -0.0372 | -0.0315 | -0.0619 | 0.0659 | -0.055
C=CCn1c(=O)c2cnc(Nc3ccc(N4CCN(C)CC4)cc3)nc2n1-c1cccc(C(C)(C)O)n1 [AZD1775] + Nc1ccn([C@@H]2O[C@H](CO)[C@@H](O)C2(F)F)c(=O)n1 [Gemcitabine] (first compound max 1 µM, partner max 0.3 µM) | 0.0255 | -0.035 | 0.0195 | -0.0076 | 0.0032 |  | -0.0247 | -0.025
CN(CCO)CC[C@H](CSc1ccccc1)Nc1ccc(S(=O)(=O)NC(=O)c2ccc(N3CCC([C@@H](O)c4ccccc4-c4ccc(Cl)cc4)CC3)cc2)cc1S(=O)(=O)C(F)(F)F [AZD4320] + CC(=O)O[C@H]1C(=O)[C@@]2(C)[C@H]([C@H](OC(=O)c3ccccc3)[C@]3(O)C[C@H](OC(=O)[C@H](O)[C@@H](NC(=O)c4ccccc4)c4ccccc4)C(C)=C1C3(C)C)[C@]1(OC(C)=O)CO[C@@H]1C[C@@H]2O [Paclitaxel] (first compound max 1 µM, 7x7, partner max 3 µM) | 0.023 | 0.0232 | 0.092 | 0.0186 | -0.0369 | 0.0018 | 0.0954 | 0.0232
CN(CCO)CC[C@H](CSc1ccccc1)Nc1ccc(S(=O)(=O)NC(=O)c2ccc(N3CCC([C@@H](O)c4ccccc4-c4ccc(Cl)cc4)CC3)cc2)cc1S(=O)(=O)C(F)(F)F [AZD4320] + CS(=O)(=O)CCNCc1ccc(-c2ccc3ncnc(Nc4ccc(OCc5cccc(F)c5)c(Cl)c4)c3c2)o1 [Lapatinib] (first compound max 1 µM, 7x7, partner max 10 µM) | 0.0503 | -0.0108 | -0.0042 | -0.0252 | 0.159 | 0.0503 | 0.0281 | 0.106
CN(CCO)CC[C@H](CSc1ccccc1)Nc1ccc(S(=O)(=O)NC(=O)c2ccc(N3CCC([C@@H](O)c4ccccc4-c4ccc(Cl)cc4)CC3)cc2)cc1S(=O)(=O)C(F)(F)F [AZD4320] + Nc1ccn([C@@H]2O[C@H](CO)[C@@H](O)C2(F)F)c(=O)n1 [Gemcitabine] (first compound max 1 µM, 7x7, partner max 0.3 µM) | 0.0089 | 0.016 | -0.08 | -0.0377 | 0.0333 | -0.0044 | 0.0054 | 0.0028
Cc1c2c(nn1C)CSCc1cc(n(C)n1)CSc1cc(c3ccccc3c1)OCCCc1c(C(=O)O)n(C)c3c-2c(Cl)ccc13 [AZD5991] + CC(=O)O[C@H]1C(=O)[C@@]2(C)[C@H]([C@H](OC(=O)c3ccccc3)[C@]3(O)C[C@H](OC(=O)[C@H](O)[C@@H](NC(=O)c4ccccc4)c4ccccc4)C(C)=C1C3(C)C)[C@]1(OC(C)=O)CO[C@@H]1C[C@@H]2O [Paclitaxel] (first compound max 1 µM, 7x7, partner max 3 µM) | 0.0072 | -0.0256 | 0.0107 | -0.0631 | -0.0043 | -0.0913 | -0.0041 | 0.0231
Cc1c2c(nn1C)CSCc1cc(n(C)n1)CSc1cc(c3ccccc3c1)OCCCc1c(C(=O)O)n(C)c3c-2c(Cl)ccc13 [AZD5991] + CS(=O)(=O)CCNCc1ccc(-c2ccc3ncnc(Nc4ccc(OCc5cccc(F)c5)c(Cl)c4)c3c2)o1 [Lapatinib] (first compound max 1 µM, 7x7, partner max 10 µM) | -0.0145 | 0.0072 | -0.011 | 0.102 | 0.0045 | -0.137 | 0.0014 | 0.0371
Cc1c2c(nn1C)CSCc1cc(n(C)n1)CSc1cc(c3ccccc3c1)OCCCc1c(C(=O)O)n(C)c3c-2c(Cl)ccc13 [AZD5991] + Nc1ccn([C@@H]2O[C@H](CO)[C@@H](O)C2(F)F)c(=O)n1 [Gemcitabine] (first compound max 1 µM, 7x7, partner max 0.3 µM) | 0.0109 | -0.0333 | -0.0215 | -0.0646 | 0.0181 | -0.0324 | -0.0682 | -0.0823
C[C@@H]1COCCN1c1cc(C2([S@](C)(=N)=O)CC2)nc(-c2ccnc3[nH]ccc23)n1 [AZD6738] + C1CC(C1)(C(=O)[O-])C(=O)[O-].N.N.[Pt+2] [Carboplatin] (first compound max 10 µM, 7x7, partner max 10 µM) | -0.051 | -0.0326 | -0.0073 | -0.0366 | 0.0138 | -0.0465 | -0.0806 | -0.0369
C[C@@H]1COCCN1c1cc(C2([S@](C)(=N)=O)CC2)nc(-c2ccnc3[nH]ccc23)n1 [AZD6738] + Nc1ccn([C@@H]2O[C@H](CO)[C@@H](O)C2(F)F)c(=O)n1 [Gemcitabine] (first compound max 10 µM, 7x7, partner max 0.3 µM) | 0.0289 | 0.0434 | 0.0393 | 0.0294 | 0.0746 | -0.108 | 0.0028 | -0.0138
Cc1cc2ncnn2cc1Nc1ncc2c(n1)n(C1CCOCC1)c(=O)n2C [AZD7648] + COc1cc([C@@H]2c3cc4c(cc3[C@@H](O[C@@H]3O[C@@H]5CO[C@@H](C)O[C@H]5[C@H](O)[C@H]3O)[C@H]3COC(=O)[C@H]23)OCO4)cc(OC)c1O [Etoposide] (first compound max 10 µM, 7x7, partner max 10 µM) | -0.0072 | 0.0079 | 0.0384 | 0.0004 | 0.0139 | -0.0395 | 0.0501 | 0.0243
C[C@@H](Nc1cc(F)cc(F)c1)c1cc(C(=O)N(C)C)cc2c(=O)cc(N3CCOCC3)oc12 [AZD8186] + C1CN(CCC1(C(=O)N[C@@H](CCO)C2=CC=C(C=C2)Cl)N)C3=NC=NC4=C3C=CN4 [AZD5363] (first compound max 10 µM, 7x7, partner max 10 µM) | -0.0756 | -0.0245 | -0.0335 | -0.0371 | -0.0913 | -0.0608 | -0.0543 | -0.0719
C[C@@H](Nc1cc(F)cc(F)c1)c1cc(C(=O)N(C)C)cc2c(=O)cc(N3CCOCC3)oc12 [AZD8186] + CC(=O)c1c(C)c2cnc(Nc3ccc(N4CCNCC4)cn3)nc2n(C2CCCC2)c1=O [Palbociclib] (first compound max 10 µM, 7x7, partner max 10 µM) | 0.0338 | -0.023 | -0.0328 | -0.138 | -0.0692 | -0.0615 | -0.0495 | -0.0439
C[C@@H](Oc1cc(-c2cnn(C3CCNCC3)c2)cnc1N)c1c(Cl)ccc(F)c1Cl [Crizotinib] + CC1=C(C(=CC=C1)Cl)NC(=O)C2=CN=C(S2)NC3=CC(=NC(=N3)C)N4CCN(CC4)CCO [Dasatinib] (first compound max 10 µM, 7x7, partner max 2 µM) | 0 | -0.0005 | -0.0005 | -0.0626 | -0.0482 | -0.0228 | 0.0208 | 0.0041
C[C@@H](Oc1cc(-c2cnn(C3CCNCC3)c2)cnc1N)c1c(Cl)ccc(F)c1Cl [Crizotinib] + Cn1cnc2c(F)c(Nc3ccc(Br)cc3Cl)c(C(=O)NOCCO)cc21 [Selumetinib] (first compound max 10 µM, 7x7, partner max 10 µM) | -0.0463 | -0.0549 | -0.039 | -0.0849 | 0.0404 | -0.0516 | -0.0898 | -0.0302
CS(=O)(=O)CCNCc1ccc(-c2ccc3ncnc(Nc4ccc(OCc5cccc(F)c5)c(Cl)c4)c3c2)o1 [Lapatinib] + Cn1cnc2c(F)c(Nc3ccc(Br)cc3Cl)c(C(=O)NOCCO)cc21 [Selumetinib] (first compound max 10 µM, 7x7, partner max 10 µM) | -0.0294 | -0.0292 | -0.0171 | -0.0646 | -0.02 | -0.0549 | -0.0505 | -0.102
O=C(c1cc(Cc2n[nH]c(=O)c3ccccc23)ccc1F)N1CCN(C(=O)C2CC2)CC1 [Olaparib] + CC1(C)CCC(CN2CCN(c3ccc(C(=O)NS(=O)(=O)c4ccc(NCC5CCOCC5)c([N+](=O)[O-])c4)c(Oc4cnc5[nH]ccc5c4)c3)CC2)=C(c2ccc(Cl)cc2)C1 [Venetoclax] (first compound max 10 µM, 7x7, partner max 1 µM) | 0.0309 | -0.0354 | -0.0584 | -0.0009 | -0.0028 | 0.0181 | -0.0825 | -0.067
O=C(c1cc(Cc2n[nH]c(=O)c3ccccc23)ccc1F)N1CCN(C(=O)C2CC2)CC1 [Olaparib] + CN(CC[C@H](CSC1=CC=CC=C1)NC2=C(C=C(C=C2)S(=O)(=O)NC(=O)C3=CC=C(C=C3)N4CCC(CC4)[C@H](C5=CC=CC=C5C6=CC=C(C=C6)Cl)O)S(=O)(=O)C(F)(F)F)CCO [AZD4320] (first compound max 10 µM, 7x7, partner max 1 µM) | 0.0334 | -0.0525 | -0.0598 | -0.0506 | 0.0133 | 0.0212 | -0.0869 | -0.0979
O=C(c1cc(Cc2n[nH]c(=O)c3ccccc23)ccc1F)N1CCN(C(=O)C2CC2)CC1 [Olaparib] + COc1nnc2ccc(N3CCC(c4ccc(OCCN5CCN(C)C(=O)[C@H]5C)cc4)CC3)nn12 [AZD5153] (first compound max 10 µM, 7x7, partner max 1 µM) | 0.0122 | -0.0518 | -0.0446 | -0.0184 | 0.0113 | -0.0784 | -0.0706 | -0.0521
O=C(c1cc(Cc2n[nH]c(=O)c3ccccc23)ccc1F)N1CCN(C(=O)C2CC2)CC1 [Olaparib] + Cc1c2c(nn1C)CSCc1cc(n(C)n1)CSc1cc(c3ccccc3c1)OCCCc1c(C(=O)O)n(C)c3c-2c(Cl)ccc13 [AZD5991] (first compound max 10 µM, 7x7, partner max 1 µM) | 0.0251 | -0.0456 | -0.0543 | -0.0851 | 0.0008 | 0.0078 | -0.0467 | -0.0646
N#Cc1cnc(Nc2cc(NC[C@H]3CNCCO3)c(C(F)(F)F)cn2)cn1 [SRA737] + O=c1[nH]cc(F)c(=O)[nH]1 [5-Fluorouracil] (first compound max 10 µM, 7x7, partner max 20 µM) | 0.006 | -0.0443 |  | -0.0358 | 0.0009 |  | -0.0279 | -0.0569
